Where two headings read alike, the source gives them in different places.
Columns and labels:
HT29 colon tumor cells = assay: MTT cell viability test, colon tumor cells; assay type: cell-based, human; details: MTT, 5 day incubation
MX1 breast cells = assay: MTT cell viability test, breast tumor cells; assay type: cell-based, human; details: 5 day incubation
[1] = tested on: MCF7 (breast cancer) cells; assay: Apoptosis study (TdT assay) and cell growth; assay type: cell-based, human
Procedure: (§1) Summary of test results: The extent of apoptosis is measured in human tumor cell lines after treatment for 1, 2, 3 and 4 days with carbendazim. At each of these time points, the cells are harvested and assayed using the terminal deoxynucleotidyl transferase (TdT) assays. Both microscopy and flow cytometry were used for the TdT assay.
(§2) In MCF7, HT29, B16 and SK-MES cell lines, there was a concentration dependent effect on cell growth. […] After completion of the studies on the MCF7 and HT29 cell lines, it was evident that the 0.1 μg/ml concentration had little effect on either apoptosis or cell growth. Therefore subsequent assays were with 5 μg/ml instead of 0.1 μg/ml.
However, at 10 μg/ml the increase in apoptosis was evident at days 3 and 4. The increase in apoptosis was low, less than 10% at the high concentration.

[2] = tested on: HT29 (colon) cancer cells; assay: Apoptosis study (TdT assay) and cell growth; assay type: cell-based, human
Procedure: as §1, §2

DLD-1 (abnormal p53) = assay: Selectivity in killing p53 abnormal cell lines, cell counts; assay type: cell-based; details: day 7
Procedure: (§3) Summary of lest results: Pairs of tumors of the same type were chosen, one expressing normal p53 and the other abnormal p53. Breast lines used were MCF7 for the normal p53, V4B, a MCF7 cells transformed with an empty vector, and VM4K, an MCF7 cells transfected with a vector encoding abnormal p53. In the colorectal cancer model HCT116 with a normal p53 was used and DLD-1 was used as the abnormal p53 cell line. The tumor cells were grown the presence and absence of carbendazim for 7 days. Cell growth rates were determined in each group by counting the cell numbers daily using a Coulter counter.

HCT116 (normal p53) = assay: as above; assay type: cell-based; details: day 7
Procedure: as §3

MCF7 (normal p53) = assay: as above; assay type: cell-based; details: day 7
Procedure: as §3

[3] = tested on: V4B (MCF7 transformed with empty vector); assay: as above; assay type: cell-based; details: day 7
Procedure: as §3

[4] = tested on: VM4K (MCF7 transfected with abnormal p53); assay: as above; assay type: cell-based; details: day 7
Procedure: as §3

B-16 mouse melanoma = details: for Increased Life Span: B16 melanoma
Procedure: The data in Tables 1, 2 and 3 are reported in T/C which is interpreted using the following scale:
long term survivors for P388 is >30 days, for B16 it is >60 days. The NCI Measure of Success is T/C=125.
This study was performed in black mice injected i.p. with B-16 mouse melanoma which many researchers believe is the most predictive model for efficacy in humans. […] Death is the end point in this model.

P388 = assay: P-388 model for leukemia, T/C; assay type: in vivo, mice
Excerpt: In the P-388 model for leukemia there was a dose responsive effect and the results were good.
The NCI Measure of Success is T/C=125.

[5] = tested on: MX1 breast cancer tumors implanted subcutaneously; assay: Tumor growth reduction in mice models (Table 5), breast; assay type: in vivo; details: MXI-breast
[6] = tested on: HIV-1 in U1 cells (promonocytic, from U937); assay: Additional chronic HIV studies, monocytes; assay type: cell-based; details: concentration not given
Procedure: (§4) Chronic HIV-1 infected cells U1 were derived from an acute HIV-1 infection of the promonocytic cell line, U937. The chronic HIV-1 infected cells, ACH-2 were derived from an acute HIV-1 infection of the T cell line, A3.01.
(§5) These cells were cultured in medium and the phorbol ester, PMA. PMA causes the cells (both U1 and ACH-2) to be activated and not divide but it also causes the U-1 cells to differentiate. […] Cell viability was measured when these cell lines were treated with the test compound.
(§6) Both cell lines constituitively produce a small amount of HIV-1. ACH-2 cell lines tend to produce more HIV-1 than U1 cells as shown by p24 ELISA. When either cell line is cultured in the presence of PMA there is an increase in the quantity of HIV-1 produced as measured by the p24 antigen ELISA.
(§7) In addition, the number of […] positive HIV mRNA expressing cells per microscopic field is measured. Comparisons can be made from these numbers since the same number of cells were adhered to the glass slides for each drug concentration 10×10^6 cells/ml).
(§8) These cells were treated with test samples. […] The positive control was interferon which suppressed HIV monocytes replication by 80%.

[7] = tested on: HIV-1 in ACH-2 cells (T cell line A3.01); assay: Additional chronic HIV studies, T cells; assay type: cell-based; details: concentration not given
Procedure: as §4, §5, §6, §7, §8

herpes [8] = assay: In vivo herpes screening test; set-up: species or system mice; details: mouse, in vivo
Procedure: The positive control was acyclovir at 75 mg/kg dose; 60% of the mice survived with a mean death date of 17.2 days.

herpes [9] = assay: In vitro herpes model; assay type: cell-based
rhinovirus = assay: In vitro rhinovirus model; assay type: cell-based

COC(=O)Nc1nc2ccccc2[nH]1 [carbendazim, 2-methoxycarbonylamino-benzimidazole]
EC-50 Result (HT29 colon tumor cells; HT29, first column): 0.621 ppm | EC-50 Result (HT29 colon tumor cells; HT29, second column): 0.662 ppm | EC-50 Result (MX1 breast cells; MX1, first column): 0.829 ppm | EC-50 Result (MX1 breast cells; MX1, second column): 0.856 ppm | increase in apoptosis ([1]; 10 μg/ml (high concentration), days 3 and 4): below 10% | cell growth ([1]; below 10 μg/ml): not significantly affected | apoptosis ([2]; 10 μg/ml, days 3 and 4): > 25% | cell growth ([2]; below 10 μg/ml): not largely slowed down | cell counts, % of the control (DLD-1 (abnormal p53); DLD1, 1 μg/ml): 34% | cell counts, % of the control (DLD-1 (abnormal p53); DLD-1, 5 μg/ml): less than 10% | cell counts, % of the control (DLD-1 (abnormal p53); DLD-1, 10 μg/ml): less than 10% | cell counts, % of the control (HCT116 (normal p53); HCT 116, 1 μg/ml): 78% | cell counts, % of the control (HCT116 (normal p53); HCT116, 5 μg/ml): less than 10% | cell counts, % of the control (HCT116 (normal p53); HCT116, 10 μg/ml): less than 10% | cell counts, % of the control (MCF7 (normal p53); 5 μg/ml): 45% | cell counts, % of the control (MCF7 (normal p53); 10 μg/ml): 36% | cell counts, % of the control ([3]; 5 μg/ml): less than 10% | cell counts, % of the control ([3]; 10 μg/ml): less than 10% | cell counts, % of the control ([4]; 5 μg/ml): less than 10% | cell counts, % of the control ([4]; 10 μg/ml): less than 10% | T/C (B-16 mouse melanoma; 500 mg/kg twice weekly): 141 | weight change (%) (B-16 mouse melanoma; 500 mg/kg twice weekly): −0.64% | T/C (B-16 mouse melanoma; 1000 mg/kg twice weekly): 176 | weight change (%) (B-16 mouse melanoma; 1000 mg/kg twice weekly): −4.75% | T/C (B-16 mouse melanoma; 1250 mg/kg twice weekly): 124 | weight change (%) (B-16 mouse melanoma; 1250 mg/kg twice weekly): +1.99% | T/C (B-16 mouse melanoma; 2000 mg/kg twice weekly): 169 | weight change (%) (B-16 mouse melanoma; 2000 mg/kg twice weekly): −11.63% | T/C (B-16 mouse melanoma; 2500 mg/kg twice weekly): 169 | weight change (%) (B-16 mouse melanoma; 2500 mg/kg twice weekly): +3.16% | T/C (B-16 mouse melanoma; 5000 mg/kg twice weekly): 198 | weight change (%) (B-16 mouse melanoma; 5000 mg/kg twice weekly): −0.64% | Increased Life Span (B-16 mouse melanoma; 1000 mg/kg): 131% | Increased Life Span (B-16 mouse melanoma; 2000 mg/kg): 163% | Increased Life Span (B-16 mouse melanoma; 4000 mg/kg): 187% | T/C (P388; 500 mg/kg twice weekly): 141 | weight change (%) (P388; 500 mg/kg twice weekly): −0.64% | T/C (P388; 1000 mg/kg twice weekly): 176 | weight change (%) (P388; 1000 mg/kg twice weekly): −4.75% | T/C (P388; 1250 mg/kg twice weekly): 124 | weight change (%) (P388; 1250 mg/kg twice weekly): +1.99% | T/C (P388; 2000 mg/kg twice weekly): 169 | weight change (%) (P388; 2000 mg/kg twice weekly): −11.63% | T/C (P388; 2500 mg/kg twice weekly): 169 | weight change (%) (P388; 2500 mg/kg twice weekly): +3.16% | T/C (P388; 5000 mg/kg twice weekly): 198 | weight change (%) (P388; 5000 mg/kg twice weekly): −0.64% | Increased Life Span (P388; P388-luekemia, 1000 mg/kg): 129% | Increased Life Span (P388; P388-luekemia, 2000 mg/kg): 148% | decreased life span (P388; P388-luekemia, 4000 mg/kg, printed in column Increased Life Span): 9% | Tumor Growth Decrease (%) ([5]; 500 mg/kg): 42% | Tumor Growth Decrease (%) ([5]; 2500 mg/kg): 37% | suppression of replication in the HIV monocytes [6]: 9% | increase of T-cell HIV replication [7]: 44% | activity (herpes [8]): no activity | activity (herpes [9]): no activity | therapeutic index (TI), ratio of toxic dose to efficacious dose (rhinovirus): 1-3
